Data published in patent US20120095100A1, “USE OF A COMBINATION OF D-ASPARTIC AND L-ASPARTIC ACIDS OR SALTS THEREOF FOR THE TREATMENT OF MALE INFERTILITY” (MERCK SERONO S.P.A., priority 2009, published 2012).
Values joined by “and” are separate entries in the source; they are usually repeats but may differ in a detail not shown here. Identical values can stand only once. Like-named read-outs stand apart in the source and are kept apart here. Marks after values point to notes of the source that are not given here.

What was measured:
[1] = tested on: spermatozoa in rabbit seminal liquid; assay: Effect of sodium D-aspartate and sodium D-/L-aspartate mixtures on number and motility of spermatozoa in rabbit seminal liquid; type: in vivo; details: rabbits, 0.25 g/day total mixed with food, 20 days
Description: The study has been carried out on two groups of rabbits (10 rabbits for each group) in order to test the effect of sodium D-aspartate and of the sodium D-aspartate in combination with a determined amount of sodium L-aspartate on the quality of seminal liquid, i.e. on number of spermatozoa/ml and on the progressive quick motility thereof.
The experiment involved the ingestion by a group of 10 male adult rabbits, 6 month old, of an amount of sodium D-aspartate corresponding to 0.250 g daily ([…] of body weight) over 20 days. Practically, sodium D-aspartate was mixed with food in such amount that the food daily ingested by the rabbit contained 0.250 g of sodium D-aspartate. In the same way, in a second experiment carried out on another group of 10 same age male adult rabbits, a mixture consisting of 0.2 g of sodium D-aspartate and 0,05 g of sodium L-aspartate (80% D-Asp: 20% L-Asp) was administered. Before the start of the experiment and at the end of drug ingestion lasting 20 days, from every rabbit a sperm sample obtained by stimulation using an artificial vagina has been collected and the total number of spermatozoa/ml of ejaculate and motility thereof have been determined.
The number of the spermatozoa and progressive quick motility are determined according to (World Health Organization) WHO guidelines using a Makler Chamber for the count (Sefi Medtstl Instrument, Haifa, Israel) and in the same place the progressive quick motility has been determined. The rabbit semen was 1:10 diluted in an iso-osmotic solution due to excessive concentration.
The study involved the administration of a mixture consisting of 0.125 g of sodium D-aspartate+0,125 g of sodium L-aspartate (D-Asp 50%: L-Asp 50%) to a group of 10 rabbits according to procedure of Example 2. […] In this case the production of the number of spermatozoa was increased by 25% and motility by 55% compared to controls showing that also in this case an improvement compared to D-aspartate alone was obtained but it was lower than mixture consisting of 80% D-aspartate and 20% L-aspartate.

[2] = tested on: spermatozoa in human seminal liquid; assay: Number and quality of spermatozoa in human seminal liquid after oral sodium D-aspartate or sodium D-/L-aspartate mixtures; type: in vivo; details: men 25-40 years, oral 3.12 g/day total, 30 days
Description: (§1) Seminal liquid has been collected through masturbation after 3-5 abstinence days. The number of the spermatozoa and progressive quick motility thereof have been determined according to (World Health Organization) WHO guidelines using a Makler Chamber for the count (Sefi Medtstl Instrument, Haifa, Israel) and in the same place the progressive quick motility has been determined.
It is to be pointed out that this study has been carried out on selected subjects having a number of spermatozoa in seminal liquid from 15.000.000 to 20.000.000/ml, that is minimum threshold values within normal range. […] In this case therefore the action of D-aspartate stimulates their maturation to vital spermatozoa.

[3] = tested on: testosterone in human serum; details: men 25-40 years, oral 3.12 g/day total, 30 days
Description: (§4) The study involves the oral ingestion (after breakfast or main meal) by a group of 10 25-40 year old people of a daily dose consisting of 3.12 g of sodium D-aspartate (19,2 μmole of sodium D-aspartate; 0.27 μmol/kg of body weight for a 70 kg person) over 30 days. Another group of 10 25-40 year old people (after breakfast or main meal) ingested a daily dose of a mixture consisting of 2.49 g of sodium D-aspartate and 0.63 g of sodium L-aspartate (80% sodium D-aspartate and 20% sodium L-aspartate) for the same period.
(§5) LH and testosterone hormonal assays have been carried out using specific commercial kits for clinical chemical use.

[4] = tested on: LH (luteinizing hormone) in human serum; details: men 25-40 years, 30 days
Description: as §4, §5

[5] = tested on: luteinizing hormone (LH), growth hormone, prolactin (PRL) and testosterone in blood; details: rat, orally administered; cited from earlier work
[6] = tested on: LH and testosterone values and spermatozoon number and motility; details: man, daily one or two 3 g doses, at least 30 days; cited from earlier work
[7] = tested on: LH (luteinizing hormone) in human serum; assay: LH in human serum after oral D-aspartic/L-aspartic acid; type: in vivo; details: men, L-aspartic acid alone
Description: (§2) Like ingestion procedure, the D-aspartic and L-aspartic acid mixture preferably was dispersed in a half filled glass containing water or fresh or stored fruit juice (orange, apple, pear, etc.), then stirred and ingested.
(§3) Before the start of the study and after 20 days of treatment in the morning from each subject blood has been collected and the concentration of LH (luteinizing hormone) and testosterone has been determined in serum obtained from said blood. Moreover, from every subject also the seminal liquid has been collected for which quick progressive motility together with total number spermatozoa/ml of sperm has been determined.

[8] = tested on: spermatozoa in rabbit seminal liquid; assay: Effect of feed containing D-aspartic/L-aspartic acid on number and motility of spermatozoa in rabbit seminal liquid; type: in vivo; details: rabbits, about 1.14 g/day total in feed, 20 days
Description: The study has been carried out on two groups of rabbits. […] A same age second group of 10 rabbits representing a control group (or placebo) was fed eat for 20 days with same type food as above prepared, but without the addition of D-aspartic and L-aspartic acids mixture. The experiments have been carried out in a rabbit breeding farm (“Potenza Breeders' Association”, Potenza, Italy). Before the start and at the end of the experiment from each rabbit a sperm sample has been collected by stimulation with an artificial vagina (see paper: “G. Macchia et al., DL-aspartic acid administration improve semen quality in rabbit bucks, published on “Animal Reproduction Science, 118, 337-343, 2010) and the total number of spermatozoa/ml of ejaculate and motility thereof have been determined.
The number of the spermatozoa and progressive quick motility are determined according to (World Health Organization) WHO guidelines using a Makler Chamber for the count (Sefi Medtstl Instrument, Haifa, Israel) and in the same place the progressive quick motility has been determined.
Also this study has been carried out on two groups of same age and weight rabbits as used for previous study. […] Also in this case seminal liquid has been collected before and after the experiment and then examined for spermatozoon number and motility thereof.
Also this study carried out on rabbits has been carried out in the same way as previous ones. […] Also in this case total amount of D-Asp+L-Asp ingested daily by rabbits was about 1.140 g.

[9] = tested on: spermatozoa in human seminal liquid; assay: Number and quick progressive motility of spermatozoa in human seminal liquid after oral D-aspartic/L-aspartic acid; type: in vivo; details: men
Description: as §2, §3
as §1, with “The seminal” for “Seminal”, “by” for “through”, “motility” for “motility thereof”

[10] = tested on: testosterone in human serum; assay: Testosterone in human serum after oral D-aspartic/L-aspartic acid; type: in vivo; details: men, L-aspartic acid alone
Description: as §2, §3

N[C@H](CC(=O)[O-])C(=O)[O-].[Na+].[Na+] [100% D-Aspartate, sodium D-aspartate]
% increment of number of spermatozoa vs before the treatment [1]: 19.3% | % increment of quick progressive spermatozoa vs before the treatment [1]: 37% | Immobile spermatozoa after ingestion (on 100 base) [1]: 18%* | Quick progressive spermatozoa after ingestion (on 100 base) [1]: 55%* | Slow spermatozoa after ingestion (on 100 base) [1]: 27%* | % increment of quick progressive spermatozoa vs before the treatment ([1]; listed as D-aspartate): 37% | Quick progressive spermatozoa after ingestion (on 100 base) ([1]; listed as D-aspartate): 55% | % increment of number of spermatozoa vs before the treatment ([1]; listed as sodium D-aspartate): 19,3% | % increment of quick progressive spermatozoa vs before the treatment ([1]; listed as sodium D-aspartate): 37% | Quick progressive spermatozoa after ingestion (on 100 base) ([1]; listed as sodium D-aspartate): 55% | % increase of quick progressive spermatozoa vs before the treatment [2]: +28% | % increase of total spermatozoa vs before the treatment [2]: +27% | Immobile spermatozoa after ingestion (on base 100) [2]: 30%* | Quick progressive spermatozoa after ingestion (on base 100) [2]: 45%* | Slow spermatozoa after ingestion (on base 100) [2]: 25%* | % increase of quick progressive spermatozoa vs before the treatment ([2]; listed as sodium D-aspartate): 28% | % increase of total spermatozoa vs before the treatment ([2]; listed as sodium D-aspartate): 27% | Testosterone % increment vs before the treatment [3]: +31.2% | Testosterone after ingestion ([3]; average of 10): 6.3 ng/ml serum | Testosterone % increment vs before the treatment ([3]; listed as sodium D-aspartate): 31.2% | LH % increment vs before the treatment ([4]; oral 3.12 g/day total): +25.6% | LH after ingestion ([4]; oral 3.12 g/day total, average of 10): 5.4 mIU/ml serum | LH % increment vs before the treatment ([4]; oral 3.12 g/day total, listed as sodium D-aspartate): 25,6% | LH haematic value after ingestion ([4]; oral 3.12 g/day): 5.4 mUI/ml

N[C@H](CC(=O)O)C(=O)O [D-aspartic acid]
Blood LH, growth hormone, prolactin and testosterone [5]: temporary increase | LH and testosterone values and spermatozoon number and motility [6]: induced an increase

N[C@@H](CC(=O)O)C(=O)O [L-aspartic acid]
LH haematic hormone before and after therapy [7]: unaltered | Immobile after treatment (on base 100) [8]: 29% | Quick motility after treatment (on base 100) [8]: 41% | Slow motility after treatment (on base 100) [8]: 30% | Quick progressive motility of spermatozoa after treatment, individual subjects ([9]; % progressive quick of 100 observed spermatozoa, one line per subject 1°-10°): 25% and 19% and 35% (2×) and 18% and 40% and 45% and 22% and 27% and 39% | Average % increment of quick progressive motility ([9]; average ± SD of 10 subjects): +35.6% ± 9.05 | % increment of number of spermatozoa, individual subjects ([9]; one line per subject 1°-10°): 26% and 40% and 20% and 33% and 36% and 15% and 13% (2×) and 19% and 12% | % increment of quick progressive motility, individual subjects ([9]; one line per subject 1°-10°): 38% and 26% and 45% and 50% and 25% (2×) and 28% and 37% and 42% and 40% | Number of spermatozoa in seminal liquid after treatment, individual subjects ([9]; one line per subject 1°-10° (20 days for the 80/20 mixture)): 8 × 10^6 and 35 × 10^6 and 6 × 10^6 and 20 × 10^6 and 41 × 10^6 and 3 × 10^6 and 34 × 10^6 and 51 × 10^6 and 25 × 10^6 and 18 × 10^6 | Testosterone haematic hormone before and after therapy [10]: unaltered
